Patent US12528837B2, “Aryl substituted polymyxin derivatives” (priority 2018, dated 2026)
Values after ≈ are worked out from the molar mass of the structure shown. Read-outs that look alike come from different tables or passages of the source. *1 amine or outer side, *2 acyl side, *3 side chain or, on linkers, in order; H or OH if unused. Where a SMILES comes first, the peptide text is derived from it. Bridges are numbered along the chain shown (N, C = ends). [ ]: non-standard residue; d: D form. The star is where a group is joined. GABA(3S-Bn) = O=C(C[C@@H](CN[*:1])Cc1ccccc1)[*:2]; GABA(3R-Bn) = O=C(C[C@H](CN[*:1])Cc1ccccc1)[*:2]; X20 = NC[C@H](CC(=O)*)c1cccc(-c2ccccc2)c1; X1 = NC[C@@H](CC(=O)*)c1cccc(Cl)c1; X10 = Cc1cccc([C@@H](CN)CC(=O)*)c1; Dab = NCC[C@H](N)C(=O)O; Abu = CC[C@H](N)C(=O)O; Dap = NC[C@H](N)C(=O)O

Assays:
P. aeruginosa CCUG 59347 = format: cell-based
Description: (§1) The inoculum was prepared by making a direct suspension of isolated colonies (selected from an 18-24 hour Mueller-Hinton agar plate) adjusted to the 0.5 McFarland standard. […] The assays were performed in duplicate. […] Several of the compounds were subjected to multiple tests, and where this is the case, the MIC presented is the median value obtained. The MIC values are quoted in μg/mL.

K. pneumoniae CA64 = format: cell-based
Description: as §1

E. coli CA58 = format: cell-based
Description: as §1

E. coli ATCC 25922 = format: cell-based; conditions: cation-adjusted Mueller-Hinton Broth, 18-20 h, 35° C.
Description: (§2) The inoculum was prepared by making a direct suspension of isolated colonies (selected from an 18-24 hour Mueller-Hinton agar plate) adjusted to the 0.5 McFarland standard. […] The assays were performed in duplicate. […] The MIC values are quoted in μg/mL.

P. aeruginosa ATCC 27853 = format: cell-based
Description: as §2

A. baumannii NCTC 13424 = format: cell-based; conditions: cation-adjusted Mueller-Hinton Broth, 18-20 h, 35° C.
Description: as §2

K. pneumoniae ATCC 13822 = format: cell-based
Description: as §2

HK-2 cells = experiment: In vitro renal cell toxicity assay (HK-2); format: cell-based
Description: The in vitro renal cell toxicity assay was performed according to the following protocol. […] Cells were seeded at 7,500 cells per well in 96-well plates and allowed to adhere overnight. […] Water and DMSO levels were kept constant at 5% and 0.5% respectively. The test compounds were incubated with cells for 24 h at 37° C. 5% CO2 in a humidified atmosphere. […] Media only background values were subtracted before the data was analysed using GraphPad Prism. Individual values were normalised to the vehicle control wells for each compound. Compound concentration values were plotted as log values to enable a dose-response curve to be fitted. The bottom of the curve was constrained to zero and IC50 values were determined. IC50 values are expressed relative to that for PMB in the same experiment. Where multiple determinations have been made, median values are presented.

[1] = Kidney drug level after subcutaneous dose in mouse; format: in vivo; conditions: mouse, in vivo
Description: Four hours after dosing the animals were euthanised and kidneys removed, trimmed of fat and connective tissue, weighed and immediately snap-frozen. After thawing at room temperature, pairs of kidneys from each animal were placed in 2 mL conical tubes containing pre-weighed ceria-stabilised zirconium oxide beads. […] After 10 min. centrifugation at 13,000 rpm and 6° C., 200 μl of the supernatants were transferred into glass inserts and analysed by LC-MS-MS.

[2] = cation-adjusted Mueller-Hinton Broth, 18-20 h, 35° C.

Row | MIC P. aeruginosa CCUG 59347 (P. aeruginosa CCUG 59347; CCUG 59347) [µg/mL] | MIC K. pneumoniae CA64 (K. pneumoniae CA64; CA64) [µg/mL] | MIC E. coli CA58 (E. coli CA58; CA58) [µg/mL] | MIC P. aeruginosa ATCC 27853 (P. aeruginosa ATCC 27853; ATCC 27853) [µg/mL] | MIC K. pneumoniae ATCC 13822 (K. pneumoniae ATCC 13822; ATCC 13822) [µg/mL] | tissue level at time at 4 h ([1]; sc, 17.2 mg/kg) [ng/g] | SMILES | MIC P. aeruginosa CCUG 59347 (P. aeruginosa CCUG 59347; [2]) [µg/mL] | MIC K. pneumoniae CA64 (K. pneumoniae CA64; [2]) [µg/mL] | MIC E. coli CA58 (E. coli CA58; [2]) [µg/mL] | MIC E. coli ATCC 25922 (E. coli ATCC 25922) [µg/mL] | MIC P. aeruginosa ATCC 27853 (P. aeruginosa ATCC 27853; [2]) [µg/mL] | MIC A. baumannii NCTC 13424 (A. baumannii NCTC 13424) [µg/mL] | HK-2 rel to PMB (HK-2 cells) | HK-2 rel to PMB (HK-2 cells; IC50 relative to PMB in the same experiment, 24 h) | tissue level at time at 4 h ([1]; mice, 17.2 mg/kg free base sc, 4 h, read-out: 4 hr kidney level) [ng/g] | MIC K. pneumoniae ATCC 13822 (K. pneumoniae ATCC 13822; [2]) [µg/mL]
1 | – | – | – | – | – | – | CC(C)C[C@@H]1NC(=O)[C@@H](CC(C)C)NC(=O)[C@H](CCN)NC(=O)[C@@H](NC(=O)[C@H](CN)NC(=O)[C@@H](NC(=O)C[C@H](CN)Cc2ccccc2)[C@@H](C)O)CCNC(=O)[C@H]([C@@H](C)O)NC(=O)[C@H](CCN)NC(=O)[C@H](CCN)NC1=O [Example 7, (R)-4-amino-3- benzylbutanoyl -Thr- Dap-Cyclo[Dab-Dab- DLeu-Leu-Dab-Dab- Thr]. Isomer 1] ({GABA(3R-Bn)}-T[Dap][Dab][Dab][dL]L[Dab][Dab]T; lactam 3-C) | 0.25 (≈ 0.229 µM) | 32 (≈ 29.3 µM) | 16 (≈ 14.7 µM) | 0.25 (≈ 0.229 µM) | – | – | – | – | – | –
2 | – | – | – | – | – | – | CC(C)C[C@@H]1NC(=O)[C@@H](CC(C)C)NC(=O)[C@H](CCN)NC(=O)[C@@H](NC(=O)[C@H](CN)NC(=O)[C@@H](NC(=O)C[C@@H](CN)Cc2ccccc2)[C@@H](C)O)CCNC(=O)[C@H]([C@@H](C)O)NC(=O)[C@H](CCN)NC(=O)[C@H](CCN)NC1=O [Example 8, (S)-4-amino-3- benzylbutanoyl-Thr- Dap-Cyclo[Dab-Dab- DLeu-Leu-Dab-Dab- Thr], Isomer 2] ({GABA(3S-Bn)}-T[Dap][Dab][Dab][dL]L[Dab][Dab]T; lactam 3-C) | 0.5 (≈ 0.459 µM) | 32 (≈ 29.3 µM) | 16 (≈ 14.7 µM) | – | 0.06 (≈ 0.055 µM) | 0.25 (≈ 0.229 µM) | – | – | – | –
3 | 0.5 (≈ 0.445 µM) | 32 (≈ 28.5 µM) | 16 (≈ 14.2 µM) | 0.25 (≈ 0.222 µM) | 0.25 (≈ 0.222 µM) | 209000 | Cc1cccc([C@@H](CN)CC(=O)N[C@H](C(=O)N[C@@H](CN)C(=O)N[C@H]2CCNC(=O)[C@H]([C@@H](C)O)NC(=O)[C@H](CCN)NC(=O)[C@H](CCN)NC(=O)[C@H](CC(C)C)NC(=O)[C@@H](Cc3ccccc3)NC(=O)[C@H](CCN)NC2=O)[C@@H](C)O)c1 [Example 21, (S)-4-amino-3-(m- tolyl)butanoyl-Thr- Dap-Cyclo[Dab-Dab- DPhe-Leu-Dab-Dab- Thr]] (X10-T[Dap][Dab][Dab][dF]L[Dab][Dab]T; lactam 3-C) | – | – | – | – | – | – | 26.7 | – | – | –
4 | – | – | – | – | – | – | CC[C@@H]1NC(=O)[C@@H](CC(C)C)NC(=O)[C@H](CCN)NC(=O)[C@@H](NC(=O)[C@H](CN)NC(=O)[C@@H](NC(=O)C[C@H](CN)c2cccc(Cl)c2)[C@@H](C)O)CCNC(=O)[C@H]([C@@H](C)O)NC(=O)[C@H](CCN)NC(=O)[C@H](CCN)NC1=O [Example 23] (X1-T[Dap][Dab][Dab][dL][Abu][Dab][Dab]T; lactam 3-C) | 0.5 (≈ 0.462 µM) | 64 (≈ 59.1 µM) | 32 (≈ 29.6 µM) | – | 0.25 (≈ 0.231 µM) | – | – | >41 | 263000 | –
5 | – | – | – | – | – | – | CC[C@@H]1NC(=O)[C@@H](CC(C)C)NC(=O)[C@H](CCN)NC(=O)[C@@H](NC(=O)[C@H](CN)NC(=O)[C@@H](NC(=O)C[C@@H](CN)c2cccc(-c3ccccc3)c2)[C@@H](C)O)CCNC(=O)[C@H]([C@@H](C)O)NC(=O)[C@H](CCN)NC(=O)[C@H](CCN)NC1=O [Example 25] (X20-T[Dap][Dab][Dab][dL][Abu][Dab][Dab]T; lactam 3-C) | 0.5 (≈ 0.445 µM) | 2 (≈ 1.78 µM) | 16 (≈ 14.2 µM) | 0.25 (≈ 0.222 µM) | 0.25 (≈ 0.222 µM) | – | – | – | – | 0.5 (≈ 0.445 µM)
